Assay results as given in patent US12728122B2, “Treatment of urothelial and kidney cancers by use of endothelin B receptor antagonists” (ENB Therapeutics, Inc., priority 2019, dated 2026).
“Also recorded” adds a separate entry of the source.

Legend:
plasma ET-1 = experiment: Plasma ET-1 ELISA after IV infusion, indirect measure of ETBR engagement; type: in vivo; settings: rats, 250 μg/kg IV infusion
Method: Plasma concentrations of BQ-788 versus BQ-788-B (COMPOUND 1). […] Briefly, rats (N=4 animals per timepoint) were administered either BQ-788 or the deuterated form, BQ-788-B (COMPOUND 1) at a dose of 250 μg/kg via IV infusion. Plasma samples were collected at various time points and ET-1 ELISA performed. BQ788 and BQ788-B are peptide drugs that are rapidly degraded in plasma and thus drug levels are difficult to detect directly. […] As such, plasma levels of ET-1 are commonly used as an indirect measure of BQ-788 biologic activity.

[1] = biological target: T1, human Endothelin receptor type A (ETA) (Homo sapiens, UniProt P25101); experiment: ETA (h) cellular antagonist effect; type: cell-based
T1 sequence (P25101 21-427): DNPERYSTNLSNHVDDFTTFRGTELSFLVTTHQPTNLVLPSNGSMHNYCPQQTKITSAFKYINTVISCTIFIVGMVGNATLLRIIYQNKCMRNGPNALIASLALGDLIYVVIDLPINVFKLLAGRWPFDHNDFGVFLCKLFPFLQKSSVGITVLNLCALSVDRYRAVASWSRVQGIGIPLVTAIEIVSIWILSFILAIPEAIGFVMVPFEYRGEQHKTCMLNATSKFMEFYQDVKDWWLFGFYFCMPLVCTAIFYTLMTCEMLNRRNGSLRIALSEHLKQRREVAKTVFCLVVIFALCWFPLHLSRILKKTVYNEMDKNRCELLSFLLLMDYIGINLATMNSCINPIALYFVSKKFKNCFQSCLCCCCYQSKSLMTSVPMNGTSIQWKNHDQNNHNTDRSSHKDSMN
Method: FIGS. 5A and 5B illustrate human (“h”) Endothelin receptor type A (“ETA”) inhibitory effect for A) BQ-788 and B) BQ-788-B (Compound 1), a specifically deuterated ETBR antagonist. Cellular agonist effect was calculated as a % of control response to a known reference agonist for ETA (h), and cellular antagonist effect was calculated as a % inhibition of control reference agonist response for ETA.
Determination of ETA (h) inhibitory effect for BQ-788 and BQ-788-B (COMPOUND 1). […] Cellular agonist effect was calculated as a % of control response to a known reference agonist for ETA (h), and cellular antagonist effect was calculated as a % inhibition of control reference agonist response for ETA.

[2] = tested on: bladder cancer tumor cells, MB49-PDIRA-220; experiment: Syngeneic bladder cancer murine model, tumor volume; type: in vivo, C57BL/6 mice; settings: for anti-bladder cancer treatment efficacy (tumor volume): vs control and single agents
Method: 6 week old female C57BL/6 mice, n=5 per group, were implanted with bladder cancer tumor cells, MB49-PDIRA-220 at the right flank. When tumors reached from about 50 mm^3-75 mm^3 in volume, mice were separated into 4 treatment groups: (1) dosed with 4 μg of BQ-788-B (Compound 1) intravenously on days 1, 3, 5, 8, 10, 12 and 15 and with 100 μg of an anti-PD-1 agent intraperitoneally on days 1, 4, 9 and 13; (2) dosed with 4 μg of BQ-788-B (Compound 1) intravenously on days 1, 3, 5, 8, 10, 12 and 15; (3) dosed with 100 μg of an anti-PD-1 agent intraperitoneally on days 1, 4, 9 and 13; or (4) untreated control. Tumor volume measurements were taken every two days post treatment.
6 week old female C57BL/6 mice, n=5 per group, were implanted with bladder cancer tumor cells, MB49-PD1RA-220 at the right flank. When tumors reached from about 100 mm^3 in volume, mice were separated into 4 treatment groups: (1) dosed with BQ-788-B (Compound 1) intravenously on days 1, 3, 5, and 8 with 100 μg of an immunotherapeutic agent, namely an anti-PD-1 antibody intraperitoneally on days 1, 4, 9 and 13 (2) dosed with 4 μg of BQ-788-B (Compound 1) intravenously on days 1, 3, 5, and 8 (3) dosed with 100 μg of an anti-PD-1 agent intraperitoneally on days 1, 4, 9 and 13 or (4) untreated control. Tumor volume measurements were taken 3 times per week. The study was terminated on day 8 due to morbidity of control groups.
6 week old female C57BL/6 mice, n=5 per group, were implanted with bladder cancer tumor cells, MB49-PDIRA-220 at the right flank. When tumors reached from about 25 mm^3-50 mm^3 volume, mice were separated into 4 treatment groups: (1) dosed with 4 μg of BQ-788-B (BQ788) intravenously on days 1, 3, 5, and 8 with 100 μg of an anti-PD-1 agent intraperitoneally on days 1, 4, and 9 (2) dosed with 4 μg of BQ-788-B (BQ788) intravenously on days 1, 3, 5, and 8 (3) dosed with 100 μg of an anti-PD-1 agent intraperitoneally on days 1, 4, and 9 or (4) untreated control. Tumor volume measurements were taken 3 times per week. The study was terminated on day 12 due to morbidity of control groups.

Recombinant human CXCR4 = biological target: T2, Recombinant human CXCR4 (Homo sapiens, UniProt P61073); experiment: CXCR4 (h) cellular antagonist effect, impedance by dielectric spectroscopy; type: cell-based; settings: CHO cells, stimulated with 1 nM SDF-1α, 28° C
T2 construct: expressed in transfected cells; host or cells: CHO cells
Method: FIGS. 4A and 4B illustrates human (“h”) CXCR inhibitory effects for, A) BQ-788 and B) BQ-788-B (Compound 1), a specifically deuterated ETBR antagonist. Cellular agonist effect was calculated as a % of control response to a known reference agonist for CXCR4 (h), and cellular antagonist effect was calculated as a % inhibition of control reference agonist response for CXCR4.
Determination of CXCR4 inhibitory effect. The inhibitory effect on CXCR4 (h) was determined for BQ-788 (FIG. 4A), and BQ-788-B (COMPOUND 1) (FIG. 4B). Cellular agonist effect was calculated as a % of control response to a known reference agonist for CXCR4 (h), and cellular antagonist effect was calculated as a % inhibition of control reference agonist response for CXCR4. Recombinant human CXCR4 was expressed in CHO cells, and stimulated with 1 nM SDF-1α and incubated at 28° C. Dielectric spectroscopy was used to measure impedance of the cells.

[3] = tested on: V600E+ (BRAF mutated) SM1 tumor; experiment: Syngeneic melanoma V600E+ (BRAF mutated) SM1 tumor model, tumor volume and IHC; type: in vivo, C57BL/6 mice
Method: The syngeneic melanoma model V600E+ (BRAF mutated) SM1 tumor model was used in C57BL/6 mice to assess efficacy of deuterated ETBR antagonists in combination with immunotherapeutics (“B+P”) as compared to a standard treatment, dabrafenib with anti-PD1 (“D+P”). […] In this study 6-8 week old female C57BL/6 mice were inoculated with SM1 tumor fragments (TME* components present). Dosing was initiated when tumors were 150 mm3. The general dosing schemes were as follows: dabrafenib (30 mg/kg daily by oral gavage), immunotherapeutic 10 mg/kg Q4D IP beginning 2 days after dabrafenib), deuterated ETBR antagonist (4 μg administered QOD IV beginning 2 days after dabrafenib). Tumors were measured three times per week, and the study was terminated after 21 days of dosing and IHC analysis of tumors was performed.
TLOs are functionally equivalent to lymph nodes, produce tumor-specific T- and B-cells, and induce long lasting anti-tumor immunity.
FIG. 11 provides table summaries of the results obtained with combination therapies (two- and three-part), TLO formation and efficacy for tumor eradication. The model system tested is as described for FIG. 8. The combinations included dabrafenib+anti-PD1 (“D+P”); dabrafenib+anti-PD1+BQ-788-B (COMPOUND 1) at 0.6 μg (“D+P+B (0.6 μg)”); dabrafenib+anti-PD1+BQ-788-B (COMPOUND 1) at 4.0 μg (“D+P+B (4.0 μg)”); dabrafenib+anti-PD1+BQ-788-B (COMPOUND 1) at 100 μg (“D+P+B (100 μg)”); and anti-PD1+BQ-788-B (COMPOUND 1) at (4.0 μg) (“P+B (4.0 μg)”). […] FIG. 12 presents the efficacy results as a function of tumor volume (mm3).
6 week old female C57BL/6 mice, n=5 per group, were implanted with V600E+ melanoma cancer tumor cells. Once tumors were established, mice were dosed with ETBR antagonists and immune checkpoint inhibitors combination therapy. 21 days post treatment, histological examination was performed, FIG. 20.

[4] = combination with anti-PD1, histology 21 days after treatment

T2 sequence (P61073 whole entry): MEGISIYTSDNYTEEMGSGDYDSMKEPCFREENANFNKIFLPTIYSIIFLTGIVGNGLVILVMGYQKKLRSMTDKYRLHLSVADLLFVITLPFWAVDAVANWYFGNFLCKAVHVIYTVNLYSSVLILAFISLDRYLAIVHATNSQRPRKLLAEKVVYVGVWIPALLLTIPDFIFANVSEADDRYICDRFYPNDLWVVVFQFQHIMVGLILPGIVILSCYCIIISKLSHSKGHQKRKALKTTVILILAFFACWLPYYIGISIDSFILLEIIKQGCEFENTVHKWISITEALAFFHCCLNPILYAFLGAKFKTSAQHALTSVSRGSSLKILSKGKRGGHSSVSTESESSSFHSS

SMILES | plasma ET-1 transient peak at (plasma ET-1) | IC50, ETA (h) inhibitory effect [1] | interaction with anti-PD1 ([2]; Example 3) | anti-bladder cancer treatment efficacy (tumor volume) ([2]; Example 3: 4 μg IV days 1,3,5,8,10,12,15 + 100 μg anti-PD-1 IP) | interaction with anti-PD1 ([2]; Example 5) | anti-bladder cancer treatment efficacy (tumor volume) ([2]; Example 5: IV days 1,3,5,8 + 100 μg anti-PD-1 IP, tumors about 100 mm^3 at start) | interaction with anti-PD1 ([2]; Example 6) | anti-bladder cancer treatment efficacy (tumor volume) ([2]; Example 6: 4 μg IV days 1,3,5,8 + 100 μg anti-PD-1 IP days 1,4,9) | IC50, CXCR4 (h) inhibitory effect (Recombinant human CXCR4) | CD8+ TIL staining distribution ([3]; BQ-788-B 0.6 μg + immune checkpoint inhibitor + dabrafenib, 21 days) | CD8+ TIL staining distribution ([3]; BQ-788-B 4.0 μg + anti-PD1 + dabrafenib, 21 days) | CD8+ TIL staining distribution ([3]; BQ-788-B 100 μg + anti-PD1 + dabrafenib, 21 days) | interaction with anti-PD1 / anti-oncologic agents ([3]; combination therapy, tumor volume) | lymphocyte infiltration of tumor (CD8+, CD4+, Treg staining) [3, 4] | tertiary lymphoid organ (TLO) formation [3, 4] | tumor outcome (volume, IHC) ([3]; deuterated ETBR antagonist 4 μg QOD IV + anti-PD1 10 mg/kg Q4D IP, 21 days) | plasma ET-1 prolonged peak out to (plasma ET-1) | plasma ET-1 response relative to BQ-788 (plasma ET-1) | tumor outcome (volume) ([3]; dabrafenib 30 mg/kg daily oral gavage + anti-PD1 10 mg/kg Q4D IP, 21 days) | effect of adding dabrafenib to anti-PD1/BQ-788-B combination ([3]; triple combination, tumor volume)
CCCC[C@@H](NC(=O)[C@@H](Cc1cn(C(=O)OC)c2ccccc12)NC(=O)[C@H](CC(C)(C)C)NC(=O)N1[C@H](C)CCC[C@@H]1C)C(=O)O [BQ-788, N-[([2R,6S]-2,6-dimethyl-1-piperidinyl)carbonyl]-4-methyl-L-leucyl-N-[(1R)-1-carboxylatopentyl]-1-[methoxycarbonyl]-D-tryptophanamide, reference compound] | about 30 minutes | not calculable | – | – | – | – | – | – | – | – | – | – | – | – | – | – | – | – | – | –
[2H]CC1CCCC(C[2H])N1C(=O)NC(CC(C)(C)C)C(=O)NC(Cc1cn(C(=O)OC)c2ccccc12)C(=O)NC(CCCC)C(=O)O (stereo not drawn) [BQ-788-B] | – | not calculable | synergy | greatest anti-bladder cancer treatment efficacy | synergy | greatest anti-bladder cancer treatment efficacy | synergy | greatest anti-bladder cancer treatment efficacy | not calculable | diffuse CD8+ TIL staining | peripheral distribution of TILs | peripheral distribution of TILs | synergistic results; also recorded: synergistic activity; also recorded: restores sensitivity to the anti-PD1 antibody | robust infiltration by CD8+ lymphocytes (TILs); also recorded: strong mobilization of lymphocytes to the tumor | most frequently associated with intratumoral TLO formation and tumor reduction; also recorded: induced tertiary lymphoid organ (TLO) formation | tumor shrinkage below baseline; also recorded: tumors had been eradicated leaving only residual adipose tissue; also recorded: eradicated the tumors | about 3 hours | enhanced duration and amplitude of response; also recorded: enhanced plasma ET-1 concentration | – | –
CC(C)(C)c1nc(-c2cccc(NS(=O)(=O)c3c(F)cccc3F)c2F)c(-c2ccnc(N)n2)s1 [dabrafenib, reference compound] | – | – | – | – | – | – | – | – | – | – | – | – | – | – | – | – | – | – | failed to shrink tumors but demonstrated intermediate tumor growth inhibition | impairs efficacy
